Converted amounts (≈) assume the structure as drawn.
Tests used:
Format in all cases: functional
Streptococcus pneumoniae [1] = test: Antibacterial activity against Streptococcus pneumoniae 49619 by NCCLS method
Streptococcus pyogenes = test: Antibacterial activity against Streptococcus pyogenes 19615 by NCCLS method
Haemophilus influenzae = test: Antibacterial activity against Haemophilus influenzae 38 by NCCLS method
Moraxella catarrhalis = test: Antibacterial activity against Moraxella catarrhalis 8176 by NCCLS method
Streptococcus pneumoniae [2] = test: Antibacterial activity against Streptococcus pneumoniae 3579 expressing erm gene by NCCLS method
Streptococcus pneumoniae [3] = test: Antibacterial activity against Streptococcus pneumoniae 6303 by NCCLS method
Streptococcus pneumoniae [4] = test: Antibacterial activity against Streptococcus pneumoniae 994 expressing mef gene by NCCLS method
Streptococcus pneumoniae [5] = test: Antibacterial activity against Streptococcus pneumoniae by NCCLS method

| SMILES | MIC (Streptococcus pneumoniae [1]) [µg/mL] | MIC (Streptococcus pyogenes) [µg/mL] | MIC (Haemophilus influenzae) [µg/mL] | MIC (Moraxella catarrhalis) [µg/mL] | MIC (Streptococcus pneumoniae [2]) [µg/mL] | MIC (Streptococcus pneumoniae [3]) [µg/mL] | MIC (Streptococcus pneumoniae [4]) [µg/mL] | MIC (Streptococcus pneumoniae [5]) [µg/mL] |
| --- | --- | --- | --- | --- | --- | --- | --- | --- |
| C=CCN(C)[C@H]1C[C@@H](C)O[C@@H](O[C@@H]2[C@@H](C)[C@H](OC(=O)Cc3ccccn3)[C@@H](C)C(=O)O[C@H](CC)[C@@]3(C)OC(=O)N(CCCCn4cnc5ccncc54)[C@@H]3[C@@H](C)C(=O)[C@H](C)C[C@@]2(C)OC)[C@@H]1O | 0.125 (≈ 0.134 µM) | 0.125 (≈ 0.134 µM) | 0.06 (≈ 0.0643 µM) | 0.06 (≈ 0.0643 µM) | 0.25 (≈ 0.268 µM) | 0.125 (≈ 0.134 µM) | 0.125 (≈ 0.134 µM) |  |
| CC[C@H]1OC(=O)[C@H](C)[C@@H](OC(=O)Cc2ccccn2)[C@H](C)[C@@H](O[C@@H]2O[C@H](C)C[C@H](N(C)CC)[C@H]2O)[C@](C)(OC)C[C@@H](C)C(=O)[C@H](C)[C@H]2N(CCCCn3cnc4ncccc43)C(=O)O[C@]12C | 0.015 (≈ 0.0163 µM) | 0.03 (≈ 0.0326 µM) | 0.06 (≈ 0.0651 µM) | 0.125 (≈ 0.136 µM) | 0.25 (≈ 0.271 µM) | 0.06 (≈ 0.0651 µM) | 0.25 (≈ 0.271 µM) |  |
| C=CCN(C)[C@H]1C[C@@H](C)O[C@@H](O[C@@H]2[C@@H](C)[C@H](OC(=O)Cc3cccnc3)[C@@H](C)C(=O)O[C@H](CC)[C@@]3(C)OC(=O)N(CCCCn4cnc(-c5ccc(N)nc5)c4)[C@@H]3[C@@H](C)C(=O)[C@H](C)C[C@@]2(C)OC)[C@@H]1O | 0.125 (≈ 0.128 µM) | 0.06 (≈ 0.0616 µM) | 0.125 (≈ 0.128 µM) | 0.125 (≈ 0.128 µM) | 0.125 (≈ 0.128 µM) | 0.06 (≈ 0.0616 µM) | 0.06 (≈ 0.0616 µM) |  |
| CC[C@H]1OC(=O)[C@H](C)[C@@H](OC(=O)Cc2cccnc2)[C@H](C)[C@@H](O[C@@H]2O[C@H](C)C[C@H](N(C)CC)[C@H]2O)[C@](C)(OC)C[C@@H](C)C(=O)[C@H](C)[C@H]2N(CCCCn3cnc(-c4cccnc4)c3)C(=O)O[C@]12C | 0.03 (≈ 0.0317 µM) | 0.03 (≈ 0.0317 µM) | 1 (≈ 1.06 µM) | 0.125 (≈ 0.132 µM) | 2 (≈ 2.11 µM) | 0.06 (≈ 0.0633 µM) | 0.125 (≈ 0.132 µM) |  |
| C=CCN(C)[C@H]1C[C@@H](C)O[C@@H](O[C@@H]2[C@@H](C)[C@H](OC(=O)Cc3ccccn3)[C@@H](C)C(=O)O[C@H](CC)[C@@]3(C)OC(=O)N(CCCCn4cnc(-c5cncnc5)c4)[C@@H]3[C@@H](C)C(=O)[C@H](C)C[C@@]2(C)OC)[C@@H]1O | 0.03 (≈ 0.0312 µM) | 0.03 (≈ 0.0312 µM) | < 0.06 | 0.125 (≈ 0.13 µM) | 0.25 (≈ 0.26 µM) | 0.03 (≈ 0.0312 µM) | 0.06 (≈ 0.0625 µM) |  |
| C=CCN(C)[C@H]1C[C@@H](C)O[C@@H](O[C@@H]2[C@@H](C)[C@H](OC(=O)Cc3ccccn3)[C@@H](C)C(=O)O[C@H](CC)[C@@]3(C)OC(=O)N[C@@H]3[C@@H](C)C(=O)[C@H](C)C[C@@]2(C)OC)[C@@H]1O | 0.015 (≈ 0.0197 µM) | 0.015 (≈ 0.0197 µM) |  | 1 (≈ 1.32 µM) | 8 (≈ 10.5 µM) | 0.125 (≈ 0.164 µM) | 0.125 (≈ 0.164 µM) |  |
| CC[C@H]1OC(=O)[C@H](C)[C@@H](OC(=O)Cc2ccc(F)cc2)[C@H](C)[C@@H](O[C@@H]2O[C@H](C)C[C@H](N(C)Cc3ccccc3)[C@H]2O)[C@](C)(OC)C[C@@H](C)C(=O)[C@H](C)[C@@H](O)[C@]1(C)O |  |  |  |  |  |  |  | 1 (≈ 1.25 µM) |

More lines, in order of falling MIC (Streptococcus pneumoniae [1]), values ahead:

| MIC (Streptococcus pneumoniae [1]) [µg/mL] | MIC (Streptococcus pyogenes) [µg/mL] | MIC (Haemophilus influenzae) [µg/mL] | MIC (Moraxella catarrhalis) [µg/mL] | MIC (Streptococcus pneumoniae [2]) [µg/mL] | MIC (Streptococcus pneumoniae [3]) [µg/mL] | MIC (Streptococcus pneumoniae [4]) [µg/mL] | MIC (Streptococcus pneumoniae [5]) [µg/mL] | SMILES |
| --- | --- | --- | --- | --- | --- | --- | --- | --- |
| 0.06 (≈ 0.0624 µM) | 0.06 (≈ 0.0624 µM) | 0.125 (≈ 0.13 µM) | 0.25 (≈ 0.26 µM) | 0.25 (≈ 0.26 µM) | 0.06 (≈ 0.0624 µM) | 0.125 (≈ 0.13 µM) |  | CC[C@H]1OC(=O)[C@H](C)[C@@H](OC(=O)Cc2ccccn2)[C@H](C)[C@@H](O[C@@H]2O[C@H](C)C[C@H](N(C)CC)[C@H]2O)[C@](C)(OC)C[C@@H](C)C(=O)[C@H](C)[C@H]2N(CCCCn3cnc(-c4ccc(N)nc4)c3)C(=O)O[C@]12C |
| 0.03 (≈ 0.0326 µM) | 0.03 (≈ 0.0326 µM) | < 0.03 | 0.25 (≈ 0.271 µM) | 2 (≈ 2.17 µM) | 0.06 (≈ 0.0651 µM) | 0.25 (≈ 0.271 µM) |  | CC[C@H]1OC(=O)[C@H](C)[C@@H](OC(=O)Cc2cccnc2)[C@H](C)[C@@H](O[C@@H]2O[C@H](C)C[C@H](N(C)CC)[C@H]2O)[C@](C)(OC)C[C@@H](C)C(=O)[C@H](C)[C@H]2N(CCCCn3cnc4ncccc43)C(=O)O[C@]12C |
| 0.03 (≈ 0.0308 µM) | 2 (≈ 2.05 µM) |  | 0.125 (≈ 0.128 µM) | 0.125 (≈ 0.128 µM) | 0.03 (≈ 0.0308 µM) | 0.06 (≈ 0.0615 µM) |  | C=CCN(C)[C@H]1C[C@@H](C)O[C@@H](O[C@@H]2[C@@H](C)[C@H](OC(=O)Cc3ccccn3)[C@@H](C)C(=O)O[C@H](CC)[C@@]3(C)OC(=O)N(CCCCn4cnc(-c5cnc(N)nc5)c4)[C@@H]3[C@@H](C)C(=O)[C@H](C)C[C@@]2(C)OC)[C@@H]1O |
| 0.015 (≈ 0.0158 µM) | 0.06 (≈ 0.0633 µM) | 1 (≈ 1.06 µM) | 0.25 (≈ 0.264 µM) | 1 (≈ 1.06 µM) | 0.06 (≈ 0.0633 µM) | 0.06 (≈ 0.0633 µM) |  | CC[C@H]1OC(=O)[C@H](C)[C@@H](OC(=O)Cc2ccccn2)[C@H](C)[C@@H](O[C@@H]2O[C@H](C)C[C@H](N(C)CC)[C@H]2O)[C@](C)(OC)C[C@@H](C)C(=O)[C@H](C)[C@H]2N(CCCCn3cnc(-c4cccnc4)c3)C(=O)O[C@]12C |
